# Data from US20230326554A1, “IDENTIFYING TREATMENT RESPONSE SIGNATURES” (Rutgers, The State University of New Jersey, priority 2022, published 2023).
# Legend:
# Format in all cases: cell-based, human
# MYC = assay: doxycycline-inducible shRNA knockdown of NME2, Western blot; conditions: C4-2B cells, 0-2000 ng/mL doxycycline for 96 hours
# Procedure: Finally, C4-2B cells expressing doxycycline-inducible shRNA targeting NME2 were generated using the targeting sequence […] (SEQ ID NO: 9). Cells were treated with 0-2000 ng/mL doxycycline for 96 hours and NME2 and MYC expression were evaluated by Western blot.
# C42B-EnzaRes cells [1] = assay: Boyden chamber-based in vitro migration assay; conditions: for cell migration with NME2 knockdown added: C42B-EnzaRes cells with knockdown of NME2
# Procedure: (§1) FIGS. 21A-21F show MYC targeting is beneficial for patients in Enzalutamide-resistant conditions. (FIG. 21A) Drug sensitivity curves of Enzalutamide-naïve, or Enzalutamide-resistant (EnzaRes) C42B cells treated with MYCi975. (FIG. 21B) Colony formation assay using Enzalutamide-resistant (EnzaRes) C42B cells in Intact (treated with DMSO), treated with Enzalutamide (10 μM), MYCi975 (2 μM), or a combination of Enzalutamide+MYCi975 (10 μM+2 μM). Cells were grown in the presence of respective drugs. Representative images are shown. P-value was estimated using a one-tailed Welch t-test. (FIG. 21C) Boyden chamber-based in vitro migration assay using Enzalutamide-resistant (EnzaRes) C42B cells in Intact (treated with DMSO), treated with Enzalutamide (10 μM), MYCi975 (2 μM), or a combination of Enzalutamide+MYCi975 (10 μM+2 μM). Bars represent the quantification of Crystal Violet trapped by migrated cells. P-value was estimated using a one-tailed Welch t-test. (FIG. 21D) Expression of NME2 in Intact and Enzalutamide-resistant (EnzaRes) C42B cells, using the qRT-PCR. P-value was estimated using the one-tailed Welch t-test. (FIG. 21E) Two different siRNAs targeting NME2 were used to downregulate NME2 (left panel) and its effect on MYC expression using qRT-PCR is shown (right panel). (FIG. 21F) Boyden chamber-based in vitro migration assay using Enzalutamide-resistance (EnzaRes) C42B cells in Intact (treated with DMSO) or treated with a combination of Enzalutamide+MYCi975 (10 μM+2 μM) with or without knockdown of NME2. Bars represent the quantification of Crystal Violet trapped by migrated cells. * p-value<0.05, ** p-value≤0.01, *** p-value≤0.001
# C42B cells = assay: dose-response cell viability assay; conditions: Enzalutamide-naïve and Enzalutamide-resistant conditions, varying doses, dose-dependent
# Procedure: as §1, with “(FIG. 21E) Two different siRNAs targeting NME2 were used to downregulate NME2 (left panel) and its effect on MYC expression using qRT-PCR is shown (right panel). (FIG. 21F) Boyden chamber-based in vitro migration assay using Enzalutamide-resistance (EnzaRes) C42B cells in Intact (treated with DMSO) or treated with a combination of Enzalutamide+MYCi975 (10 μM+2 μM) with or without knockdown of NME2.” left out, “p-value≤0.001 […]” for “p-value≤0.001”
# LNCaP-EnzaRes cells = assay: colony formation assay; conditions: MYCi975 2 μM, Enzalutamide 10 μM, compared to Intact (DMSO)
# Procedure: (§2) FIGS. 22A and 22B show MYC inhibition reduces viability and colony formation in Enzalutamide resistant conditions. (FIG. 22A) Drug response curves of Enzalutamide naïve LNCaP or Enzalutamide-resistant LNCaP cells treated with Enzalutamide and/or MYC-i975. (FIG. 22B) Colony formation assay using Enzalutamide-resistant LNCaP cells t(LNCaP-Enza-Res) in intact (treated with DMSO), treated with enzalutamide (10 μM), MYC-i975 (2 μM), or a combination of Enzalutamide+MYC-i975 (10 μM+2 μM). Cells were grown in the presence of respective drugs. Bars represent quantification of Crystal Violet trapped by migrated cells. P-value is estimated utilizing one-tailed Welch t-test. * p<0.05, *** p≤0.001.
# (§3) Generation of Enzalutamide-resistant cell lines: LNCaP (clone FDG) and C42B cells were purchased from ATCC and were grown in RPMI1640 media (GIBCO # 11875093) supplemented with 10% Fetal Bovine Serum (FBS, Corning Cat#35-011-CV) and maintained at […] in and 5% CO2. Enzalutamide powder was purchased from Sellekchem (cat #S1250) and re-suspended in DMSO. Cells were plated in 6 well plates and treated either with DMSO, or with Enzalutamide (20 uM), refreshed every 4 days for up to 3 months until the resistance emerged. RNA from cells was extracted on indicated days using the methods described below. […]
# C42B-EnzaRes cells [2] = assay: colony formation assay; conditions: MYCi975 2 μM, Enzalutamide 10 μM, compared to Intact (DMSO)
# Procedure: as §1, with “(FIG. 21E) Two different siRNAs targeting NME2 were used to downregulate NME2 (left panel) and its effect on MYC expression using qRT-PCR is shown (right panel). (FIG. 21F) Boyden chamber-based in vitro migration assay using Enzalutamide-resistance (EnzaRes) C42B cells in Intact (treated with DMSO) or treated with a combination of Enzalutamide+MYCi975 (10 μM+2 μM) with or without knockdown of NME2.” left out, “p-value≤0.001 […]” for “p-value≤0.001”
# LNCaP cells = assay: dose-response cell viability assay; conditions: Enzalutamide-naïve and Enzalutamide-resistant conditions, varying doses, dose-dependent
# Procedure: as §2, §3
molecule,measurement,setting,value
"shRNA targeting NME2: doxycycline-inducible shRNA targeting NME2, targeting sequence GAAATCAGCCTATGGTTTAAG (SEQ ID NO: 9)",MYC expression,MYC,suppresses MYC expression
CNC(=O)c1ccc(N2C(=S)N(c3ccc(C#N)c(C(F)(F)F)c3)C(=O)C2(C)C)cc1F [Enzalutamide],cell migration with NME2 knockdown added,C42B-EnzaRes cells [1],low metastatic capability
Cn1nc(C(F)(F)F)cc1-c1ccc(OCc2ccc(Cl)cc2)c(-c2ccc(Cl)c(C(F)(F)F)c2)c1O [MYCi975],cell migration with NME2 knockdown added,C42B-EnzaRes cells [1],further reduced
same,cell migration,"C42B-EnzaRes cells [1]; C42B-EnzaRes cells, MYCi975 2 μM, Enzalutamide 10 μM, compared to Intact (DMSO)",significant reduction in cell migration
same,cell viability,C42B cells,striking reduction of the cell viability
same,colony formation,LNCaP-EnzaRes cells,reduced the colony formation
same,colony formation,C42B-EnzaRes cells [2],reduced the colony formation
same,cell viability,LNCaP cells,striking reduction of the cell viability
